According to patent publication US4992461A, “N-azabicyclo(3.3.0)octane amides of aromatic acids, compositions, and methods of use thereof” (G. D. Searle & Co., priority 1989, dated 1991):
Structures can show the parent of a compound that is named as a salt.

Experiments:
[1] = system: beagle dogs; assay: Antiemetic activity against cisplatin in beagle dogs; type: in vivo; details: cisplatin 3 mg/kg i.v., 5 hours
Method: Antiemetic activity of test compound against cisplatin was determined in beagle dogs. Dogs are pretreated I.V. with a test compound dissolved in DMSO thirty minutes before administration of cisplatin 3 mg/kg.i.v. with a second dose of compounds given i.v. two hours after cisplatin administration. Emetic episodes are counted for 5 hours following cisplatin administration.
Per cent inhibition of emesis for each animal is determined by the following formula: [formula] A mean per cent inhibition of emesis is determined for at least 4 dogs.

[2] = system: gastric antrum; assay: Antral motility in conscious fasted dogs; type: in vivo, Mongrel dogs; details: 60 min after injection relative to Phase III of MMC
Method: This contractile activity is thought to enhance gastric emptying by more rapidly reducing food particle size for passage through the pylorus.
Mongrel dogs of either sex were surgically implanted with strain gauge force transducers on the gastric antrum at 6 cm, 4 cm and 2 cm from the gastroduodenal junction. The dogs were allowed two weeks to recover and were trained to stand quietly in Pavlov slings.
Dogs were fasted for 18 to 24 hours prior to each experiment to record a pattern of antral contractile activity characteristic of the fasted state called the Migrating Motor Complex (MMC). The period of the MMC cycle is approximately 90 to 120 minutes and consists of 45 to 60 minutes of motor quiescence (Phase I) 30 to 45 minutes of intermittent activity (Phase II) and 10 to 15 minutes of intense contractile activity (Phase III). A control MMC period is recorded prior to compound administration to obtain the length of the quiescent Phase I period. Compound is given intravenously at the end of Phase III of the control MMC cycle and a subsequent Phase I period is examined for the ability of the compound to produce contractions. A response index is calculated as the mean 10 minute motility index for 60 minutes following injection of test compound divided by the 10 minute motility index obtained for the previous Phase III period of the MMC. The response index represents an estimate of the fraction of maximal antral motor activity produced by the compound.

[3] = system: rats; assay: Rat gastric emptying of a test meal; type: in vivo, Male Charles River Rats, Crl: COBS, CD (SD) BR Strain; details: 30 min before test meal, 60 min after meal
Method: A test meal for measuring gastric emptying in rats was prepared. Ten grams of methylcellulose (2% solution=15 centipoises; Aldrich Chemical Company, Milwaukee, Wis.) was added to 200 ml of cold water and mixed at 20,000 rpm in a Waring blender to insure dispersion and hydration of the methylcellulose. In addition, two beef bouillon cubes (Wyler's, Columbus, Ohio) dissolved in 100 ml of warm water was added to the mixture, followed by 16 g of casein (Hammersten, Schwartz/Mann, Orangeburg, N.Y.), 8 g of powdered confectioners sugar and 8 g of cornstarch. The ingredients were mixed for two minutes at 20,000 rpm and the resultant test meal was refrigerated for 48 hours to allow trapped air to escape.
Male Charles River Rats, Crl: COBS, CD (SD) BR Strain, 180-200 g body weight, were used in groups of six animals. The animals were food deprived for 24 hours prior to the experiment with access to water ad libitum. The compounds to be evaluated were prepared in a 0.5% aqueous methylcellulose solution. If insoluble, the mixture was homogenized for two minutes at 5500 rpm using a Try-R-Stir-R. The compounds were injected intraperitoneally at a volume of 5 ml/kg, 30 minutes before the test meal, (3.0 ml/rat i.g.). Control animals received only the vehicle. Sixty minutes after the test meal, the rats were sacrificed by cervical dislocation. The stomachs were removed intact and weighed. The stomachs were kept opened, gently rinsed with tap water, blotted dry with paper towelling, and the empty stomach weighed. The difference between the weight of the full and empty stomach is indicative of the amount of meal remaining in the stomach. The amount of meal remaining in the stomach was subtracted from the weight of 3 ml of the test meal to determine the amount of food emptied from the stomach during the test. Weight of the test meal was determined by weighing three samples (3 ml) at the beginning and three samples at the end of each experiment and calculating the mean. The mean and standard error of the amount of meal emptied were calculated.

[4] = system: 5-HT3; assay: Bezold-Jarisch Reflex test (5-HT induced bradycardia in pentobarbital anesthetized mice); type: in vivo; details: 5-HT 0.25 mg/kg i.v. induced bradycardia, 30 min
Method: 5-HT3 antagonism can be determined for a compound by subjecting the compound to a Bezold-Jarisch Reflex test which is described and reported by Saxena, P.R., and Lawang, A.; Arch. Int.
The test compound is administered i.p. (mg/kg) to a group of 3 mice. Thirty minutes later a 5-HT (0.25 mg/kg i.v.) induced bradycardia is recorded in pentobarbital anesthetized animals.

Structure (SMILES) | % INHIBITION OF CISPLATIN EMESIS ([1]; 0.3 mg/kg iv) [%] | % INHIBITION OF CISPLATIN EMESIS ([1]; 1.0 mg/kg iv) [%] | RESPONSE INDEX ([2]; 0.1 mg/kg iv) | RESPONSE INDEX ([2]; 0.3 mg/kg iv) | RESPONSE INDEX ([2]; 1.0 mg/kg iv) | % INCREASE IN GASTRIC EMPTYING ([3]; 1.0 mg/kg ip) [%] | % INCREASE IN GASTRIC EMPTYING ([3]; 3.0 mg/kg ip) [%] | % INCREASE IN GASTRIC EMPTYING ([3]; 10.0 mg/kg ip) [%] | % INHIBITION ([4]; 2.5 mg/kg ip) [%] | % INHIBITION ([4]; 5.0 mg/kg ip) [%] | % INHIBITION ([4]; 10.0 mg/kg ip) [%] | % INHIBITION OF CISPLATIN EMESIS ([1]; 3.0 mg/kg iv) [%] | RESPONSE INDEX ([2]; 3.0 mg/kg iv) | % INHIBITION OF CISPLATIN EMESIS ([1]; .005 mg/kg iv) [%] | % INHIBITION OF CISPLATIN EMESIS ([1]; .05 mg/kg iv) [%]
COc1cc(N)c(Cl)cc1C(=O)NC1CCN(CCCOc2ccc(F)cc2)CC1OC (centres unmarked) [Cisapride, cisapride] | -2.3 | 91.0 | 0.45 | 0.54 | 0.41 | 9.8 | 15.4 | 25.0 | 49 | 54 | 78 |  |  |  | 
CCN(CC)CCNC(=O)c1cc(Cl)c(N)cc1OC [Metoclopramide, metoclopramide] | 19.5 |  |  |  | 0.23 | 2.6 | 11.2 | 34.1 |  |  | 40 | 99.9 | 0.65 |  | 
COc1cc(N)c(Cl)cc1C(=O)NC[C@@H]1CCN2CCC[C@@H]12 (relative stereo) [Example 5, cis-4-amino-5-chloro-N-[(hexahydro-1H-pyrrolizin-1-yl)methyl]-2-methoxybenzamide,dihydrochloride] | 27.0 |  |  | 0.37 | 0.49 | 2.5 | 9.4 | 15.8 |  | 47 | 85 | 95.5 | 0.58 |  | 
COc1cc(N)c(Cl)cc1C(=O)NC[C@H]1CCN2CCC[C@@H]12 (relative stereo) [Example 7, trans-4-amino-5-chloro-N-[(hexahydro-1H-pyrrolizin-1-yl)-methyl]-2-methoxybenzamide,dihydrochloride] |  |  |  |  |  | 3.1 | 0.9 | -6.9 | 55 | 61 | 86 |  | 0.40 |  | 
CN1C2CCC1CC(OC(=O)c1c[nH]c3ccccc13)C2 (centres unmarked) [ICS 205-930] |  |  |  |  |  |  |  |  |  |  |  |  |  | 60.8 | 100.0
